Source: US11440898B2, “Isoquinoline compounds, methods for their preparation, and therapeutic uses thereof in conditions associated with the alteration of the activity of beta galactosidase” (Minoryx Therapeutics S.L., priority 2016, dated 2022)

The compounds below were run against T1, mutated beta-galactosidase (p.R60H canine GLB1) in GM11473 fibroblasts (Canis lupus familiaris, UniProt Q9TRY9, R60H) (assay: Enhancement of β-galactosidase activity measured in GM1 fibroblasts (GM11473), 4-MU-β-D-galactopyranoside substrate). Settings: increase in β-galactosidase enzyme activity vs non-treated cells, concentrations between 6 and 50 μM, 4 days incubation.
T1 construct: host or cells: GM11473 canine GM1 gangliosidosis fibroblasts
T1 sequence (Q9TRY9 30-668 R60H): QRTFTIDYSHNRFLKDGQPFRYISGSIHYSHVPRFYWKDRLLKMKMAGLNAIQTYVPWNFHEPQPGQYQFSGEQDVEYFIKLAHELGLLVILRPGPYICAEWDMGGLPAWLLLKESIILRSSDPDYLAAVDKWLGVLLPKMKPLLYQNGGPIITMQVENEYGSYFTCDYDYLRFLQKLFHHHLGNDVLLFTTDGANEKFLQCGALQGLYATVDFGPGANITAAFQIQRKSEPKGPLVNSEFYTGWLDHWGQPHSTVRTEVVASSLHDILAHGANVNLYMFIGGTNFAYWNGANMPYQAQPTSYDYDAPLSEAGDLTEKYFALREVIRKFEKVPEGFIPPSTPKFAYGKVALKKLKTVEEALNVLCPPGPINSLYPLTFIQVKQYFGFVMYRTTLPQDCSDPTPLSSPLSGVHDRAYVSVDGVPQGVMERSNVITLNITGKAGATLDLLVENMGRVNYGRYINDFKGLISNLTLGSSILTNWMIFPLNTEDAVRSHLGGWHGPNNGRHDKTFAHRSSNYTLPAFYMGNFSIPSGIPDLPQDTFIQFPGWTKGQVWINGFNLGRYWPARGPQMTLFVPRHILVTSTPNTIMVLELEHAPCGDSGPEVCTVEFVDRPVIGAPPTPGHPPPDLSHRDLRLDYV
Format: cell-based
Parameters: key: Increase in comparison with non-treated of >2.5 fold is shown as A; Increase in comparison with non-treated of >1.7-2.5 fold is shown as B; Increase in comparison with non-treated of 1.2-1.7 fold is shown as C; D means that no increase compared with non-treated cells was detected in this method
Method: The capacity of the Compounds of the Disclosure to enhance mutated beta-galactosidase activity levels in GM1 fibroblasts was assayed as follows.
Fibroblasts homozygous for a GM1 gangliosidosis missense mutation (GM11473) (canine fibroblasts homozygous for the GM1 gangliosidosis missense mutation p.R60H equivalent to human p.R59H mutation) were purchased from Coriell Institute for Medical Research (Camden, N.J., USA).
Fibroblasts were seeded at 4×10^4 cells per well in 12-well cell culture plates in Dulbecco's Modified Eagle's Media (DMEM) supplemented with 10% of fetal bovine serum (FBS), 1% penicillin/streptomycin (P/S) (Thermo Fisher Scientific, Waltham, Mass., USA) and incubated at 37° C., 5% CO2 overnight for cell attachment. Subsequently, cells were incubated in the absence or presence of the compounds at the desired concentration for 4 days. After incubation, cells were washed twice with phosphate-buffered saline (“PBS”) and detached using Trypsin-EDTA solution (Sigma Aldrich, St. Louis, Mo., USA) to prepare cell pellets. The pellets were stored at −80° C. until activity assays were performed.
β-Galactosidase activity in cell lysates was measured by using 4-Methylumbelliferyl-β-D-galactopyranoside substrate (Sigma Aldrich, St. Louis, Mo., USA). Briefly, lysates were resuspended in 200 μL of 0.9% NaCl containing 0.01% triton X-100 lysis buffer to promote membrane disruption. The cell suspension was sonicated and centrifuged to remove insoluble materials. Then, lysates were mixed with 4-MU-β-D-galactopyranoside in 100 mM citrate buffer (pH=4) and 100 mM NaCl for 60 min at 37° C. The reaction was terminated by adding 100 mM glycine-NaOH buffer (pH=10.7). The liberated 4-MU was measured on a GloMax Discover plate reader (Promega, Madison, Wis., USA) with excitation at 340 nm and emission at 460 nm. Protein quantification was determined using Pierce BCA Protein Assay Kit (Thermo Fisher Scientific, Waltham, Mass., USA). Measurements were interpolated in a 4-MU standard curve and normalized by protein quantity. Enzyme activities were expressed in treated cells as X-fold increase in comparison with non-treated cells (X=1 represents no enhancement).
The capacity of the Compounds of the Disclosure to produce an increase in β-galactosidase enzyme activity in canine GM1 fibroblasts bearing p.R60H canine GLB1 mutation at concentrations between 6 and 50 μM is denoted as follows: • Increase in comparison with non-treated of >2.5 fold is shown as A. • Increase in comparison with non-treated of >1.7-2.5 fold is shown as B. • Increase in comparison with non-treated of 1.2-1.7 fold is shown as C. • D means that no increase compared with non-treated cells was detected in this method. • ND means “not determined.”

SMILES | Activity in GM11473 fibroblasts
O=C(NCc1ccccc1)c1ccc(Nc2nccc3ccc(Cl)cc23)cn1 [Example 29, N-benzyl-5-((7-chloroisoquinolin-1-yl)amino)picolinamide] | A (Increase in comparison with non-treated of >2.5 fold is shown as A)
COc1ccc(CNC(=O)c2ccc(Nc3nccc4ccc(Cl)cc34)cn2)cc1 [Example 30, 5-((7-Chloroisoquinolin-1-yl)amino)-N-(4-methoxybenzyl)picolinamide] | B (Increase in comparison with non-treated of >1.7-2.5 fold is shown as B)
COc1cccc(CNC(=O)c2ccc(Nc3nccc4ccc(Cl)cc34)cn2)c1 [Example 31, 5-((7-Chloroisoquinolin-1-yl)amino)-N-(3-methoxybenzyl)picolinamide] | B (Increase in comparison with non-treated of >1.7-2.5 fold is shown as B)
COc1ccc(CNC(=O)c2ccc(Nc3nccc4ccc(Cl)cc34)cn2)cc1OC [Example 32, 5-((7-Chloroisoquinolin-1-yl)amino)-N-(3,4-dimethoxybenzyl)picolinamide] | C (Increase in comparison with non-treated of 1.2-1.7 fold is shown as C)
O=C(NC1CCc2ccccc2C1)c1ccc(Nc2nccc3ccc(Cl)cc23)cn1 (stereo not shown) [Example 34, 5-((7-Chloroisoquinolin-1-yl)amino)-N-(1,2,3,4-tetrahydronaphthalen-2-yl)picolinamide] | A (Increase in comparison with non-treated of >2.5 fold is shown as A)
O=C(NCc1ccc2c(c1)OCCCO2)c1ccc(Nc2nccc3ccc(Cl)cc23)cn1 [Example 35, 5-((7-Chloroisoquinolin-1-yl)amino)-N-((3,4-dihydro-2H-benzo[b][1,4]dioxepin-7-yl)methyl)picolinamide] | C (Increase in comparison with non-treated of 1.2-1.7 fold is shown as C)
O=C(NCc1ccc2c(c1)CCO2)c1ccc(Nc2nccc3ccc(Cl)cc23)cn1 [Example 36, 5-((7-Chloroisoquinolin-1-yl)amino)-N-((2,3-dihydrobenzofuran-5-yl)methyl)picolinamide] | C (Increase in comparison with non-treated of 1.2-1.7 fold is shown as C)
O=C(NCc1ccc2c(c1)OCO2)c1ccc(Nc2nccc3ccc(Cl)cc23)cn1 [Example 37, N-(benzo[d][1,3]dioxol-5-ylmethyl)-5-((7-chloroisoquinolin-1-yl)amino)picolinamide] | D
O=C(NCCc1ccc2c(c1)OCCO2)c1ccc(Nc2nccc3ccc(Cl)cc23)cn1 [Example 38, 5-((7-Chloroisoquinolin-1-yl)amino)-N-(2-(2,3-dihydrobenzo[b][1,4]dioxin-6-yl)ethyl)picolinamide] | D
O=C(NCc1ccc2c(c1)CCCO2)c1ccc(Nc2nccc3ccc(Cl)cc23)cn1 [Example 39, 5-((7-Chloroisoquinolin-1-yl)amino)-N-(chroman-6-ylmethyl)picolinamide] | B (Increase in comparison with non-treated of >1.7-2.5 fold is shown as B)
COc1ccc2c(c1)CCC(NC(=O)c1ccc(Nc3nccc4ccc(Cl)cc34)cn1)C2 (stereo not shown) [Example 40, 5-((7-Chloroisoquinolin-1-yl)amino)-N-(6-methoxy-1,2,3,4-tetrahydronaphthalen-2-yl)picolinamide] | B (Increase in comparison with non-treated of >1.7-2.5 fold is shown as B)
O=C(NCC1CCc2ccccc2C1)c1ccc(Nc2nccc3ccc(Cl)cc23)cn1 (stereo not shown) [Example 41, 5-((7-Chloroisoquinolin-1-yl)amino)-N-((1,2,3,4-tetrahydronaphthalen-2-yl)methyl)picolinamide] | B (Increase in comparison with non-treated of >1.7-2.5 fold is shown as B)
COc1ccc2ccnc(Nc3ccc(C(=O)NC4CCc5ccccc5C4)nc3)c2c1 (stereo not shown) [Example 45, 5-((7-Methoxyisoquinolin-1-yl)amino)-N-(1,2,3,4-tetrahydronaphthalen-2-yl)picolinamide] | C (Increase in comparison with non-treated of 1.2-1.7 fold is shown as C)
